Values of other authors as cited in paper PMC8513935.
One block for each molecule: values may come before it.

How the values were obtained:
[1] = derived by the authors as gas->solvent minus gas->water (a hypothetical dry solvent; the ESI), not a two-phase measurement
[2] = experimental, compiled by the authors from the literature (the ESI cites the sources)
[3] = log P octanol/water from commercial databases, averaged (the ESI); details: Octanol (wet), 25 C

log K of transfer, water to solvent ([1]; 2-Methylpropan-2-ol, 25 C): 0.77 log10 K | log K of transfer, water to solvent ([1]; Butan-1-ol, 25 C): 0.64 log10 K | log K of transfer, water to solvent ([1]; Butan-2-ol, 25 C): 0.7 log10 K | log K of transfer, water to solvent ([1]; Butanone, 25 C): 0.41 log10 K | log K of transfer, water to solvent ([1]; CCl4, 25 C): -0.54 log10 K | log K of transfer, water to solvent ([1]; Chlorobenzene, 25 C): -0.27 log10 K | log K of transfer, water to solvent ([1]; Chloroform, 25 C): 0.3 log10 K | log K of transfer, water to solvent ([1]; Decan-1-ol, 25 C): 0.506 log10 K | log K of transfer, water to solvent ([1]; Hexadecane, 25 C): -1.05 log10 K | log K of transfer, water to solvent ([1]; Hexane, 25 C): -0.783 log10 K | log K of transfer, water to solvent ([1]; Octan-1-ol(dry), 25 C): 0.41 log10 K | log K of transfer, gas to solvent ([2]; 2-Methylpropan-2-ol, 25 C): 4.16 log10 K | log K of transfer, gas to solvent ([2]; Butan-1-ol, 25 C): 4.03 log10 K | log K of transfer, gas to solvent ([2]; Butan-2-ol, 25 C): 4.09 log10 K | log K of transfer, gas to solvent ([2]; Butanone, 25 C): 3.8 log10 K | log K of transfer, gas to solvent ([2]; CCl4, 25 C): 2.85 log10 K | log K of transfer, gas to solvent ([2]; Chlorobenzene, 25 C): 3.12 log10 K | log K of transfer, gas to solvent ([2]; Chloroform, 25 C): 3.69 log10 K | log K of transfer, gas to solvent ([2]; Decan-1-ol, 25 C): 3.89 log10 K | log K of transfer, gas to solvent ([2]; Hexadecane, 25 C): 2.34 log10 K | log K of transfer, gas to solvent ([2]; Hexane, 25 C): 2.61 log10 K | log K of transfer, gas to solvent ([2]; Octan-1-ol, 25 C): 3.8 log10 K | log K of transfer, gas to solvent ([2]; Water, 25 C): 3.39 log10 K | log K of transfer, water to solvent [3]: 0.65 log10 K
SMILES: CCC(C)O (centres unmarked)

SMILES: Clc1cccc(Cl)c1
log K of transfer, water to solvent ([1]; CCl4, 25 C): 3.83 log10 K | log K of transfer, water to solvent ([1]; Chloroform, 25 C): 3.87 log10 K | log K of transfer, water to solvent ([1]; Hexadecane, 25 C): 3.69 log10 K | log K of transfer, water to solvent ([1]; Hexane, 25 C): 3.81 log10 K | log K of transfer, water to solvent ([1]; Octan-1-ol(dry), 25 C): 3.41 log10 K | log K of transfer, gas to solvent ([2]; CCl4, 25 C): 4.55 log10 K | log K of transfer, gas to solvent ([2]; Chloroform, 25 C): 4.59 log10 K | log K of transfer, gas to solvent ([2]; Hexadecane, 25 C): 4.41 log10 K | log K of transfer, gas to solvent ([2]; Hexane, 25 C): 4.53 log10 K | log K of transfer, gas to solvent ([2]; Octan-1-ol, 25 C): 4.13 log10 K | log K of transfer, gas to solvent ([2]; Water, 25 C): 0.72 log10 K | log K of transfer, water to solvent [3]: 3.6 log10 K

log K of transfer, water to solvent ([1]; 1,2-Dichloroethane, 25 C): 5.55 log10 K | log K of transfer, water to solvent ([1]; 2-Methylpropan-2-ol, 25 C): 5.5 log10 K | log K of transfer, water to solvent ([1]; 3-Methylbutan-1-ol, 25 C): 5.51 log10 K | log K of transfer, water to solvent ([1]; Acetone, 25 C): 5.34 log10 K | log K of transfer, water to solvent ([1]; Acetonitrile, 25 C): 4.79 log10 K | log K of transfer, water to solvent ([1]; Benzene, 25 C): 6.03 log10 K | log K of transfer, water to solvent ([1]; Butan-1-ol, 25 C): 5.37 log10 K | log K of transfer, water to solvent ([1]; Butanone, 25 C): 5.56 log10 K | log K of transfer, water to solvent ([1]; Butyronitrile, 25 C): 5.32 log10 K | log K of transfer, water to solvent ([1]; CCl4, 25 C): 6.16 log10 K | log K of transfer, water to solvent ([1]; Chlorobenzene, 25 C): 6.1 log10 K | log K of transfer, water to solvent ([1]; Chloroform, 25 C): 6.01 log10 K | log K of transfer, water to solvent ([1]; Cyclohexane, 25 C): 6.18 log10 K | log K of transfer, water to solvent ([1]; Cyclohexanone, 25 C): 5.53 log10 K | log K of transfer, water to solvent ([1]; Decan-1-ol, 25 C): 5.43 log10 K | log K of transfer, water to solvent ([1]; Di-n-butyl ether, 25 C): 5.96 log10 K | log K of transfer, water to solvent ([1]; Dichloromethane, 25 C): 5.83 log10 K | log K of transfer, water to solvent ([1]; Diethyl Ether, 25 C): 6.03 log10 K | log K of transfer, water to solvent ([1]; Ethanol, 25 C): 5.28 log10 K | log K of transfer, water to solvent ([1]; Hexadecane, 25 C): 5.78 log10 K | log K of transfer, water to solvent ([1]; Hexane, 25 C): 6.08 log10 K | log K of transfer, water to solvent ([1]; Methanol, 25 C): 4.93 log10 K | log K of transfer, water to solvent ([1]; Octan-1-ol(dry), 25 C): 5.41 log10 K | log K of transfer, water to solvent ([1]; Pentan-1-ol, 25 C): 5.5 log10 K | log K of transfer, water to solvent ([1]; Perfluoroalkane, 25 C): 4.65 log10 K | log K of transfer, water to solvent ([1]; Propan-1-ol, 25 C): 5.28 log10 K | log K of transfer, water to solvent ([1]; Propan-2-ol, 25 C): 5.28 log10 K | log K of transfer, water to solvent ([1]; Propionitrile, 25 C): 5.16 log10 K | log K of transfer, water to solvent ([1]; Tetrahydrofuran, 25 C): 5.96 log10 K | log K of transfer, water to solvent ([1]; Toluene, 25 C): 6.05 log10 K | log K of transfer, gas to solvent ([2]; 1,2-Dichloroethane, 25 C): 3.44 log10 K | log K of transfer, gas to solvent ([2]; 2-Methylpropan-2-ol, 25 C): 3.39 log10 K | log K of transfer, gas to solvent ([2]; 3-Methylbutan-1-ol, 25 C): 3.4 log10 K | log K of transfer, gas to solvent ([2]; Acetonitrile, 25 C): 2.68 log10 K | log K of transfer, gas to solvent ([2]; Benzene, 25 C): 3.92 log10 K | log K of transfer, gas to solvent ([2]; Butan-1-ol, 25 C): 3.26 log10 K | log K of transfer, gas to solvent ([2]; Butanone, 25 C): 3.45 log10 K | log K of transfer, gas to solvent ([2]; Butyronitrile, 25 C): 3.21 log10 K | log K of transfer, gas to solvent ([2]; CCl4, 25 C): 4.05 log10 K | log K of transfer, gas to solvent ([2]; Chlorobenzene, 25 C): 3.99 log10 K | log K of transfer, gas to solvent ([2]; Chloroform, 25 C): 3.9 log10 K | log K of transfer, gas to solvent ([2]; Cyclohexane, 25 C): 4.07 log10 K | log K of transfer, gas to solvent ([2]; Cyclohexanone, 25 C): 3.42 log10 K | log K of transfer, gas to solvent ([2]; Decan-1-ol, 25 C): 3.32 log10 K | log K of transfer, gas to solvent ([2]; Di-n-butyl ether, 25 C): 3.85 log10 K | log K of transfer, gas to solvent ([2]; Dichloromethane, 25 C): 3.72 log10 K | log K of transfer, gas to solvent ([2]; Diethyl Ether, 25 C): 3.92 log10 K | log K of transfer, gas to solvent ([2]; Ethanol, 25 C): 3.17 log10 K | log K of transfer, gas to solvent ([2]; Hexadecane, 25 C): 3.68 log10 K | log K of transfer, gas to solvent ([2]; Hexane, 25 C): 3.97 log10 K | log K of transfer, gas to solvent ([2]; Methanol, 25 C): 2.82 log10 K | log K of transfer, gas to solvent ([2]; Octan-1-ol, 25 C): 3.3 log10 K | log K of transfer, gas to solvent ([2]; Pentan-1-ol, 25 C): 3.39 log10 K | log K of transfer, gas to solvent ([2]; Perfluoroalkane, 25 C): 2.54 log10 K | log K of transfer, gas to solvent ([2]; Propan-1-ol, 25 C): 3.17 log10 K | log K of transfer, gas to solvent ([2]; Propan-2-ol, 25 C): 3.17 log10 K | log K of transfer, gas to solvent ([2]; Propanone, 25 C): 3.23 log10 K | log K of transfer, gas to solvent ([2]; Propionitrile, 25 C): 3.05 log10 K | log K of transfer, gas to solvent ([2]; Tetrahydrofuran, 25 C): 3.85 log10 K | log K of transfer, gas to solvent ([2]; Toluene, 25 C): 3.94 log10 K | log K of transfer, gas to solvent ([2]; Water, 25 C): -2.11 log10 K | log K of transfer, water to solvent [3]: 5.15 log10 K
SMILES: CCCCCCCC

log K of transfer, water to solvent ([1]; Chloroform, 25 C): 1.36 log10 K | log K of transfer, water to solvent ([1]; Hexadecane, 25 C): 0.48 log10 K | log K of transfer, gas to solvent ([2]; Chloroform, 25 C): 4.21 log10 K | log K of transfer, gas to solvent ([2]; Hexadecane, 25 C): 3.33 log10 K | log K of transfer, gas to solvent ([2]; Water, 25 C): 2.85 log10 K | log K of transfer, water to solvent [3]: 1.29 log10 K
SMILES: CN1CCCCC1
